According to the NIST ThermoML archive (doi:10.1021/je400491p):

Conditions: 101.33 kPa, Liquid; for viscosity: Capillary tube (Ostwald / Ubbelohde) method; for mass density: Pycnometric method

OCCO [1,2-ethanediol]
Conditions	mass density [kg/m3]	viscosity [mPa·s]
313.15 K	1098.9	9.309
323.15 K	1091.7	6.818
333.15 K	1084.2	5.027
343.15 K	1078.1	3.915
